Measurements from patent publication US20160264636A1, “PEPTIDE INHIBITORS OF TEAD/YAP-TAZ INTERACTION” (UNIVERSITE PIERRE ET MARIE CURIE (PARIS 6), priority 2013, published 2016).
Read-outs that look alike come from different tables or passages of the source.

What was measured:
Type in all cases: cell-based
ES2 cells = experiment: MTT cytotoxicity assay, ES2; details: for Letal Dose (μM) LD25: Table VIII, 72 h, MTT, 25% cell death; for Cell viability (%): Table IX
Procedure: (§1) The cytotoxicity of penetrating peptides or chemotherapeutic agents, alone or in combination, was evaluated by the (3-(4,5-dimethylthiazol-2-yl)-2,5-diphenyltetrazolium bromide) tetrazolium (MTT) reduction assay. The cells were seeded in 96-well plates (100 μL/well) at a cell density defined from growth curves. After 24 hours of incubation, cells were treated with the peptides for 72 hours. The wells were rinsed two times with RPMI. After washing, 10 μl of stock MTT solution (5 mg/ml; MTT (SIGMA #M-2128) in PBS Dubecco's 1× without Ca^2+ and Mg^2+) was added to a final volume of 100 μl of culture medium. Cell lines were incubated for additional 4 hours at 37° C. under humid atmosphere with 5% (v/v) CO2. The formation of blue formazan crystals was detected under a microscope. An equal volume of 10% SDS (MERCK, #926.238) in 10 mM HCl was added to each well and the plate was placed in the incubator overnight to dissolve formazan crystals. The plates were mixed to ensure complete solubilisation of formazan crystals and absorbance was measured at 570 nm and 620 nm. The percentage of viable cells was estimated using the formula: % cell viability=ΔOD(570-620) treated/ΔOD(570-620)control×100.
(§2) ES2, IGROV-1, OVCAR8 and SKOV3 cell lines come from human ovarian cancer.
(§3) Cell-penetrating peptides (CPPs) comprising the binding site of TEAD to TAZ or YAP or of YAP to TEAD (TAZ, TEAD and YAP peptides, respectively) were chemically synthesized. The effect of the peptides on cell viability was assayed on several human ovarian cancer cell lines. All the ovarian cancer cell lines were treated for 72 h with different peptide concentrations. Cytotoxicity was analysed as described in example 2.

OVCAR8 cells = experiment: MTT cytotoxicity assay, OVCAR8; details: for Letal Dose (μM) LD25: Table VIII, 72 h, MTT, 25% cell death; for Cell viability (%): Table IX
Procedure: as §1, §2, §3

SKOV3 cells = experiment: MTT cytotoxicity assay, SKOV3; details: for Letal Dose (μM) LD25: Table VIII, 72 h, MTT, 25% cell death; for Cell viability (%): Table IX
Procedure: as §1, §2, §3

IGROV-1 cells = experiment: MTT cytotoxicity assay, IGROV; details: for Letal Dose (μM) LD25: Table VIII, 72 h, MTT, 25% cell death; for Cell viability (%): Table IX
Procedure: as §1, §2, §3

HBEC wt cells = details: for Letal Dose (μM) LD25: Table II, HBEC WT, 72 h, MTT, 25% cell death; for Cell viability (%): HBEC wt
Procedure: (§4) H1650, H1975, H1299, A549 cell lines were cultured in DMEM medium supplemented with 10% of FCS. HBEC cell lines (wt and Ras V12) were cultured in KSFM supplemented with growth factors. All the cell lines come from human non small cell lung cancer (NSCLC).
as §1
(§5) Cell-penetrating peptides (CPPs) comprising the binding site of TEAD to TAZ or YAP or of YAP to TEAD (TAZ, TEAD and YAP peptides, respectively) were chemically synthesized. The effect of the peptides on cell viability was assayed on several human non small cell lung cancer (NSCLC) cell lines. All the lung cancer cell lines were treated for 72 h with different peptide concentrations. Cytotoxicity was analysed as described in Materials and Methods.

H1650 cells = details: for Letal Dose (μM) LD25: Table II, 72 h, MTT, 25% cell death
Procedure: as §4, §1, §5

H1975 cells = details: for Letal Dose (μM) LD25: Table II, 72 h, MTT, 25% cell death
Procedure: as §4, §1, §5

A549 cells = details: for Letal Dose (μM) LD25: Table II, 72 h, MTT, 25% cell death
Procedure: as §4, §1, §5

H1299 cells = details: for Letal Dose (μM) LD25: Table II, 72 h, MTT, 25% cell death
Procedure: as §4, §1, §5

HBEC RasV12 cells = details: for Letal Dose (μM) LD25: Table II, 72 h, MTT, 25% cell death
Procedure: as §4, §1, §5

[1] = Table III, drug alone vs its vehicle (HPCD10%, NaCl or Glucose 5%)
[2] = Table IV, drug alone vs its vehicle (Glucose 5% or NaCl)
[3] = Table V, drug alone vs its vehicle (Glucose 5% or NaCl)
[4] = Table VI, peptide alone vs HPCD 10%

Compound	Letal Dose (μM) LD25 (ES2 cells)	Letal Dose (μM) LD25 (OVCAR8 cells)	Letal Dose (μM) LD25 (SKOV3 cells)	Letal Dose (μM) LD25 (IGROV-1 cells)	Letal Dose (μM) LD25 (HBEC wt cells)	Cell viability (%) (HBEC wt cells; [1])	Cell viability (%) (HBEC wt cells; [2])	Cell viability (%) (HBEC wt cells; [3])	Letal Dose (μM) LD25 (H1650 cells)	Cell viability (%) (H1650 cells; [1])	Cell viability (%) (H1650 cells; [2])	Cell viability (%) (H1650 cells; [3])	Letal Dose (μM) LD25 (H1975 cells)	Cell viability (%) (H1975 cells; [1])	Letal Dose (μM) LD25 (A549 cells)	Cell viability (%) (A549 cells; [1])	Letal Dose (μM) LD25 (H1299 cells)	Cell viability (%) (H1299 cells; [1])	Letal Dose (μM) LD25 (HBEC RasV12 cells)	Cell viability (%) (HBEC RasV12 cells; [1])	other results
N.N.O=C([O-])C1(C(=O)[O-])CCC1.[Pt+2] [Carboplatin]	10 µM	30 µM	18 µM	30 µM																	
N.N.[Cl][Pt][Cl] [Cisplatin]					2 µM	−21.45%	−77.04%	−77.96%	2 µM	−55.41%	−77.26%	−83.01%	30 µM	−76.57%	3 µM	−37.43%	30 µM	−57.12%	1 µM	−44.42%	Cell viability (%) (H1975 cells; [2]): −85.91%; Cell viability (%) (H1975 cells; [3]): −97.93%; Cell viability (%) (A549 cells; [2]): −60.45%; Cell viability (%) (A549 cells; [3]): −57.64%; Cell viability (%) (H1299 cells; [2]): −73.62%; Cell viability (%) (H1299 cells; [3]): −95.42%; Cell viability (%) (HBEC RasV12 cells; [2]): −55.51%; Cell viability (%) (HBEC RasV12 cells; [3]): −89.58%
CC(=O)O[C@@]12CO[C@@H]1C[C@H](O)[C@@]1(C)C(=O)[C@H](O)C3=C(C)[C@@H](OC(=O)[C@H](O)[C@@H](NC(=O)OC(C)(C)C)c4ccccc4)C[C@@](O)([C@@H](OC(=O)c4ccccc4)[C@H]21)C3(C)C [Docetaxel]					0.0002 µM	25.93%	−54.02%	−2.578%	0.0001 µM	23.41%	−41.32%	0.1681%	0.0008 µM	5.931%	0.0002 µM	11.73%	0.007 µM	−10.53%	0.0002 µM	15.19%	Cell viability (%) (H1975 cells; [2]): −92.17%; Cell viability (%) (H1975 cells; [3]): −79.23%; Cell viability (%) (A549 cells; [2]): −49.02%; Cell viability (%) (A549 cells; [3]): −39.31%; Cell viability (%) (H1299 cells; [2]): −72.38%; Cell viability (%) (H1299 cells; [3]): −89.07%; Cell viability (%) (HBEC RasV12 cells; [2]): −88.64%; Cell viability (%) (HBEC RasV12 cells; [3]): −95.93%
CC(=O)O[C@H]1C(=O)[C@@]2(C)[C@H]([C@H](OC(=O)c3ccccc3)[C@]3(O)C[C@H](OC(=O)[C@H](O)[C@@H](NC(=O)c4ccccc4)c4ccccc4)C(C)=C1C3(C)C)[C@]1(OC(C)=O)CO[C@@H]1C[C@@H]2O [Paclitaxel]	0.004 µM	0.003 µM	0.005 µM	0.002 µM																	
C#Cc1cccc(Nc2ncnc3cc(OCCOC)c(OCCOC)cc23)c1 [Tarceva, Erlotinib]					0.04 µM	−15.63%	−55.15%	−37.28%	0.4 µM	−47.11%	−38.72%	−53.13%	3 µM	−49.68%	0 µM	−52.89%	>100 µM	−39.83%	0.001 µM	−4.596%	Cell viability (%) (H1975 cells; [2]): −77.63%; Cell viability (%) (H1975 cells; [3]): −56.6%; Cell viability (%) (A549 cells; [2]): −60.75%; Cell viability (%) (A549 cells; [3]): −67.3%; Cell viability (%) (H1299 cells; [2]): −60.68%; Cell viability (%) (H1299 cells; [3]): −61.14%; Cell viability (%) (HBEC RasV12 cells; [2]): −25.67%; Cell viability (%) (HBEC RasV12 cells; [3]): 0.2682%
VKKKKIKAEIKIPPHAFFVLKFWADLNWGPSGEEAGAG [TAZ]	6 µM	9 µM	60 µM	5 µM	2.5 µM	−58.16%			>100 µM	−30.68%			3 µM	−49.35%	6 µM	−38%	5 µM	−24.71%	2.5 µM	−89.9%	Cell viability (%) (ES2 cells; TAZ 10 μM vs HPCD 10%): −46.33%; Cell viability (%) (ES2 cells; TAZ 25 μM vs HPCD 10%): −57.44%; Cell viability (%) (OVCAR8 cells; TAZ 10 μM vs HPCD 10%): −18.7%; Cell viability (%) (OVCAR8 cells; TAZ 25 μM vs HPCD 10%): −24.69%; Cell viability (%) (SKOV3 cells; TAZ 10 μM vs HPCD 10%): −26.64%; Cell viability (%) (SKOV3 cells; TAZ 25 μM vs HPCD 10%): −36.09%; Cell viability (%) (IGROV-1 cells; TAZ 10 μM vs HPCD 10%): −39.39%; Cell viability (%) (IGROV-1 cells; TAZ 25 μM vs HPCD 10%): −34%; Cell viability (%) (HBEC wt cells; [4]): −66.15%; Cell viability (%) (H1650 cells; [4]): −2.439%; Cell viability (%) (H1975 cells; [4]): −13.21%; Cell viability (%) (A549 cells; [4]): −7.835%; Cell viability (%) (H1299 cells; [4]): −8.413%; Cell viability (%) (HBEC RasV12 cells; [4]): −53.02%
